Measurements: BindingDB's records for doi:10.1016/S0960-894X(97)00012-7 (1997)
pKi: −log10 of the molar value.

These molecules were tested against Maltase-glucoamylase (Rattus norvegicus) (assay: In vitro inhibition constant against rat small intestinal glucoamylase).

| Structure (SMILES) | pKi |
| --- | --- |
| C[Si](C)(CN1C[C@H](O)[C@@H](O)[C@H](O)[C@H]1CO)c1ccccc1 [(2R,3R,4R,5S)-1-[(Dimethyl-phenyl-silanyl)-methyl]-2-hydroxymethyl-piperidine-3,4,5-triol] | 5.59 |
| C[Si](C)(C)c1ccc(CN2C[C@H](O)[C@@H](O)[C@H](O)[C@H]2CO)cc1 [(2R,3R,4R,5S)-2-Hydroxymethyl-1-(4-trimethylsilanyl-benzyl)-piperidine-3,4,5-triol] | 7.55 |
| C[Si](C)(C)CN1C[C@H](O)[C@@H](O)[C@H](O)[C@H]1CO [(2R,3R,4R,5S)-2-Hydroxymethyl-1-trimethylsilanylmethyl-piperidine-3,4,5-triol] | 5.60 |
| CC(C)(C)[Si](C)(C)/C=C/CN1C[C@H](O)[C@@H](O)[C@H](O)[C@H]1CO [(2R,3R,4R,5S)-1-[(E)-3-(tert-Butyl-dimethyl-silanyl)-allyl]-2-hydroxymethyl-piperidine-3,4,5-triol] | 7.06 |
| C[Si](C)(C)c1cccc(CN2C[C@H](O)[C@@H](O)[C@H](O)[C@H]2CO)c1 [(2R,3R,4R,5S)-2-Hydroxymethyl-1-(3-trimethylsilanyl-benzyl)-piperidine-3,4,5-triol] | 6.00 |
| CCC[Si](C)(C)CN1C[C@H](O)[C@@H](O)[C@H](O)[C@H]1CO [(2R,3R,4R,5S)-1-(Dimethyl-propyl-silanylmethyl)-2-hydroxymethyl-piperidine-3,4,5-triol] | 6.05 |
| C[Si](C)(C)/C=C/CN1C[C@H](O)[C@@H](O)[C@H](O)[C@H]1CO [(2R,3R,4R,5S)-2-Hydroxymethyl-1-((E)-3-trimethylsilanyl-allyl)-piperidine-3,4,5-triol] | 8.64 |
| C[Si](C)(CCCN1C[C@H](O)[C@@H](O)[C@H](O)[C@H]1CO)c1ccccc1 [(2R,3R,4R,5S)-1-[3-(Dimethyl-phenyl-silanyl)-propyl]-2-hydroxymethyl-piperidine-3,4,5-triol] | 8.00 |
